In brackets after ≈: the same amount, converted by molar mass.
Columns and labels:
[1] = test system: SD rats, shock related to blood loss; experiment: Treatment action for shock related to blood loss (Embodiment A7)
[2] = Solubility of polydatin in alcohol-propanediol-water mixed solvent (Embodiment 15); assay type: physicochemical; conditions: for solubility at 8 h: aqueous with cosolvent or surfactant or cyclodextrin, thermodynamic from solid
From the text: 1. Materials: Anhydrous alcohol, analytically pure, Guangzhou No. 2 chemical reagent factory; 1,2-propanediol, analytically pure, Guangzhou No. 2 chemical reagent factory; purified water, […] industry city. 2. Method: Precisely measuring alcohol water solution of 45%, 60%, 75%(v/v), precisely adding propanediol at volume proportions of 10:1, 10:2, 10:2.5, 10:3, 10:4, preparing mixed solvents. The mixed solvents obtained contain propanediol of about 10%˜30%(v/v), alcohol of about 32%˜68%(v/v). Precisely measuring 20 ml of each above mixed solvent, adding polydatin of proper amount respectively, treating with ultrasonic for 20 min under 40° C., supersaturating the solution, placing for 8 h under room temperature, filtering with 0.45 μm microporous membrane, wherein the filtrates are saturated solutions of polydatin in different mixed solutions. Adopting HPLC method to determine content of polydatin in the filtrates and calculate solubility of polydatin referring to document 20.

[3] = test system: SD rats, shock related to skin burn; experiment: Treatment action for shock related to skin burn (Embodiment A8); assay type: in vivo; conditions: 2.4 mg/kg venous injection half hour after burning; control 7.0±2.6 hours
[4] = Solubility of polydatin in propanediol-water solution (Embodiment 14); assay type: physicochemical; conditions: for solubility at 8 h: thermodynamic from solid, room temperature
Experimental: Materials: 1,2-propanediol, analytically pure, Guangzhou No. 2 chemical reagent factory; purified water, […] industry city. Method: Preparing propanediol water solutions having concentration of at least 20%(v/v) with propanediol and purified water. Precisely measuring propanediol and 20 ml propanediol water solution of each above concentration, adding polydatin of proper amount respectively, treating with ultrasonic for 20 min under 40° C., supersaturating the solution, placing for 8 h under room temperature, filtering with 0.45 μm microporous membrane, wherein the filtrates are saturated solutions of polydatin in propanediol water solutions of different concentration. Adopting HPLC method to determine content of polydatin in the filtrates and calculate solubility of polydatin referring to document 20.

[5] = test system: shock caused by bleeding in rats; conditions: versus equal dose of comparators; cited from earlier work
[6] = Solubility of polydatin in alcohol-water solution and normal saline (Embodiment 13); assay type: physicochemical; conditions: room temperature; for solubility at 8 h: thermodynamic from solid
Experimental: • 1. Materials: Anhydrous alcohol, analytically pure, Guangzhou No.2 chemical reagent factory; purified water, […] industry city; 0.9% sodium chloride injection, batch number C040514-092, Sichuan kelun pharmaceutical co., ltd. • 2. Method: Preparing alcohol water solutions having concentration of 15%, […] 30%, 40%, 50%, 60%, 70%, 80%, 90%, 95%(v/v) with anhydrous alcohol and purified water. Precisely Measuring water, anhydrous alcohol, 0.9% sodium chloride injection (normal saline) and 20 ml alcohol water solution of each above concentration, adding polydatin of proper amount respectively, treating with ultrasonic for 20 min under 40 □, supersaturating the solution, placing for 8 h under room temperature, filtering with 0.45 μm microporous membrane, wherein the filtrates are saturated solutions of polydatin in alcohol water solutions of different concentration. Adopting HPLC method to determine content of polydatin in the filtrates and calculate solubility of polydatin referring to document 20. • 3. Result: […]

[7] = Effect of pH to solubility of polydatin (Embodiment 12); assay type: physicochemical; conditions: for solubility at 8 h: deionized water of adjusted pH, thermodynamic from solid, water, room temperature
Experimental: • 1. Materials: Deionized water, […] industry city; sodium hydroxide, Dongguan dongjiang chemical reagent co., ltd.; hydrochloric acid, Dongguan dongjiang chemical reagent co., ltd. • 2. Method: Regulating deionized water into pH of 5.0˜12.0 with 0.2N sodium hydroxide and 0.2N hydrochloric acid. Measuring precisely 20 ml each of above solutions, adding polydatin of proper amount respectively, treating with ultrasonic for 20 min under 40° C., supersaturating the solution, placing for 8 h under room temperature, filtering with 0.45 μm microporous membrane, wherein the filtrates are saturated solutions of polydatin in water solutions of different pHs. Adopting HPLC method to determine content of polydatin in the filtrates and calculate solubility of polydatin referring to document 20 (Wuye etc., determination content of resveratrol glycoside and tangerine peel glycoside in qing dan capsule with HPLC method, Chinese traditional patent medicine, 1999, 21(5): 226). • 3.

blood platelet = conditions: 6˜100 μmol/L; cited from earlier work
hyperlipoidemia patient = conditions: 2.2 mg/kg/d; cited from earlier work
[8] = Solubility of polydatin in alcohol-propanediol-water mixed solvent (Embodiment 15); assay type: physicochemical; conditions: mixed solvent of 60% alcohol-water and propanediol 10:25(v/v) as printed

OCC1OC(Oc2cc(O)cc(/C=C/c3ccc(O)cc3)c2)C(O)C(O)C1O [polydatin, 3,4′,5-trihydroxy-trans stilbene-3-β-D-glucoside]
fraction of the treatment group with survival period of 24 hours ([1]; 2.4 mg/kg through femoral vein): 9/10 | fraction of the treatment group with survival period of 48 hours ([1]; 2.4 mg/kg through femoral vein): 8/10 | fraction of the treatment group with survival period of 72 hours ([1]; 2.4 mg/kg through femoral vein): 6/10 | ratio of the survival time of the treatment group and the control group ([1]; 2.4 mg/kg through femoral vein, 1 hour after shock): > 5.5 | arterial pressure ([1]; after 30 minutes of medication, 2.4 mg/kg, 5.3+0.2 kPa after shock for 1 hour): 8.6+0.8 kPa | increase of diameter of micro blood vessel ([1]; after medication, 2.4 mg/kg, diameter reduced to 63.3% by shock): 20.3% | solubility at 8 h ([2]; alcohol-propanediol-water mixed solvent, 45% alcohol water/propanediol 10/1): 27.8 mg/mL (≈ 71.2 mM) | solubility at 8 h ([2]; alcohol-propanediol-water mixed solvent, 45% alcohol water/propanediol 10/2): 34.3 mg/mL (≈ 87.9 mM) | solubility at 8 h ([2]; alcohol-propanediol-water mixed solvent, 45% alcohol water/propanediol 10/2.5): 39.5 mg/mL (≈ 101 mM) | solubility at 8 h ([2]; alcohol-propanediol-water mixed solvent, 45% alcohol water/propanediol 10/3): 42.4 mg/mL (≈ 109 mM) | solubility at 8 h ([2]; alcohol-propanediol-water mixed solvent, 45% alcohol water/propanediol 10/4): 52.2 mg/mL (≈ 134 mM) | solubility at 8 h ([2]; alcohol-propanediol-water mixed solvent, 60% alcohol water/propanediol 10/1): 55.7 mg/mL (≈ 143 mM) | solubility at 8 h ([2]; alcohol-propanediol-water mixed solvent, 60% alcohol water/propanediol 10/2): 66.4 mg/mL (≈ 170 mM) | solubility at 8 h ([2]; alcohol-propanediol-water mixed solvent, 60% alcohol water/propanediol 10/2.5): ~75 mg/mL (≈ 192 mM) | solubility at 8 h ([2]; alcohol-propanediol-water mixed solvent, 60% alcohol water/propanediol 10/3): 93.3 mg/mL (≈ 239 mM) | solubility at 8 h ([2]; alcohol-propanediol-water mixed solvent, 60% alcohol water/propanediol 10/4): 95.2 mg/mL (≈ 244 mM) | solubility at 8 h ([2]; alcohol-propanediol-water mixed solvent, 75% alcohol water/propanediol 10/1): 81.5 mg/mL (≈ 209 mM) | solubility at 8 h ([2]; alcohol-propanediol-water mixed solvent, 75% alcohol water/propanediol 10/2): 89.8 mg/mL (≈ 230 mM) | solubility at 8 h ([2]; alcohol-propanediol-water mixed solvent, 75% alcohol water/propanediol 10/2.5): 92.9 mg/mL (≈ 238 mM) | solubility at 8 h ([2]; alcohol-propanediol-water mixed solvent, 75% alcohol water/propanediol 10/3): 98.4 mg/mL (≈ 252 mM) | solubility at 8 h ([2]; alcohol-propanediol-water mixed solvent, 75% alcohol water/propanediol 10/4): 116 mg/mL (≈ 297 mM) | solubility at 8 h ([2]; alcohol-water solution without propanediol, 45% alcohol water, no propanediol (10/—)): 20.2 mg/mL (≈ 51.7 mM) | solubility at 8 h ([2]; alcohol-water solution without propanediol, 60% alcohol water, no propanediol (10/—)): 42.5 mg/mL (≈ 109 mM) | solubility at 8 h ([2]; alcohol-water solution without propanediol, 75% alcohol water, no propanediol (10/—)): 75.1 mg/mL (≈ 192 mM) | concentration of polydatin ([2]; mixed solvent of 60% alcohol-water and propanediol 10:2.0~10:4.0): higher than 60 mg/ml | average survival period [3]: > 13.3 h | solubility at 8 h ([4]; 1,2-propanediol, organic solvent or mixture, content of propanediol 100% (propanediol)): ~60 mg/mL (≈ 154 mM) | stability of the solution ([4]; 20% propanediol water solution, about 3.5 mg/ml): precipitates solute of polydatin after placing for 12 h | solubility at 8 h ([4]; propanediol-water solution, aqueous with cosolvent or surfactant or cyclodextrin, content of propanediol 20% (v/v) in water): ~3.5 mg/mL (≈ 8.97 mM) | solubility at 8 h ([4]; propanediol-water solution, aqueous with cosolvent or surfactant or cyclodextrin, content of propanediol 35% (v/v) in water): 4.9 mg/mL (≈ 12.6 mM) | solubility at 8 h ([4]; propanediol-water solution, aqueous with cosolvent or surfactant or cyclodextrin, content of propanediol 50% (v/v) in water): 24.4 mg/mL (≈ 62.5 mM) | solubility at 8 h ([4]; propanediol-water solution, aqueous with cosolvent or surfactant or cyclodextrin, content of propanediol 65% (v/v) in water): 28.3 mg/mL (≈ 72.5 mM) | solubility at 8 h ([4]; propanediol-water solution, aqueous with cosolvent or surfactant or cyclodextrin, content of propanediol 80% (v/v) in water): 33.6 mg/mL (≈ 86.1 mM) | treatment effect to shock caused by bleeding [5]: better than that of using an equal dose of Dopamine and Anisodamine hydrobromide | solubility at 8 h ([6]; alcohol-water solution, aqueous with cosolvent or surfactant or cyclodextrin, alcohol water solution 50%~95% (v/v)): > 20 mg/mL | solubility at 8 h ([6]; alcohol-water solution, aqueous with cosolvent or surfactant or cyclodextrin, content of alcohol 15% (v/v) in water): ~1 mg/mL (≈ 2.56 mM) | solubility at 8 h ([6]; alcohol-water solution, aqueous with cosolvent or surfactant or cyclodextrin, content of alcohol 30% (v/v) in water): ~6 mg/mL (≈ 15.4 mM) | solubility at 8 h ([6]; alcohol-water solution, aqueous with cosolvent or surfactant or cyclodextrin, content of alcohol 40% (v/v) in water): 9.2 mg/mL (≈ 23.6 mM) | solubility at 8 h ([6]; alcohol-water solution, aqueous with cosolvent or surfactant or cyclodextrin, content of alcohol 50% (v/v) in water): ~25 mg/mL (≈ 64 mM) | solubility at 8 h ([6]; alcohol-water solution, aqueous with cosolvent or surfactant or cyclodextrin, content of alcohol 60% (v/v) in water): ~42 mg/mL (≈ 108 mM) | solubility at 8 h ([6]; alcohol-water solution, aqueous with cosolvent or surfactant or cyclodextrin, content of alcohol 70% (v/v) in water): ~80 mg/mL (≈ 205 mM) | solubility at 8 h ([6]; alcohol-water solution, aqueous with cosolvent or surfactant or cyclodextrin, content of alcohol 80% (v/v) in water): 76.8 mg/mL (≈ 197 mM) | solubility at 8 h ([6]; alcohol-water solution, aqueous with cosolvent or surfactant or cyclodextrin, content of alcohol 90% (v/v) in water): ~75 mg/mL (≈ 192 mM) | solubility at 8 h ([6]; alcohol-water solution, aqueous with cosolvent or surfactant or cyclodextrin, content of alcohol 95% (v/v) in water): 30.7 mg/mL (≈ 78.6 mM) | solubility at 8 h ([6]; anhydrous alcohol, organic solvent or mixture, content of alcohol 100% (anhydrous alcohol)): ~20 mg/mL (≈ 51.2 mM) | solubility ([6]; content of alcohol 70% (v/v) in water): 80.9 mg/mL (≈ 207 mM) | solubility at 8 h ([6]; normal saline, saline or isotonic, normal saline (0.9% sodium chloride injection)): < 0.5 mg/mL | solubility at 8 h ([6]; purified water, water, content of alcohol 0% (purified water)): < 0.5 mg/mL | pH of the solution needed to obtain polydatin water solution ([7]; concentration above 3 mg/ml): above 12 | solubility at 8 h ([7]; pH 5, aqueous buffer, pH of solvent 5.0): < 500 µg/mL | solubility at 8 h ([7]; pH 6, aqueous buffer, pH of solvent 6.0): < 500 µg/mL | solubility at 8 h ([7]; pH 7, aqueous buffer, pH of solvent 7.0): < 500 µg/mL | solubility at 8 h ([7]; pH 8, aqueous buffer, pH of solvent 8.0): < 500 µg/mL | solubility at 8 h ([7]; pH 9, aqueous buffer, pH of solvent 9.0): < 500 µg/mL | solubility at 8 h ([7]; pH 10, aqueous buffer, pH of solvent 10.0): < 500 µg/mL | solubility at 8 h ([7]; pH 11, aqueous buffer, pH of solvent 11.0): 700 µg/mL (≈ 1.79 mM) | solubility at 8 h ([7]; pH 12, aqueous buffer, pH of solvent 12.0): ~5000 µg/mL (≈ 12.8 mM) | pH of final solution ([7]; pH of solvent 12): about 10 | pH of the final solution ([7]; polydatin water solution of concentration above 3 mg/ml): above 10 | production of the platelet accumulation and B2 thrombus induced by AA and ADP (blood platelet): capable of inhibiting | total cholesterol, LDL/HDL cholesterol ratio, and blood platelet aggregation rate (hyperlipoidemia patient): capable of lowering | stabilization of the solution in cold preservation [8]: good stabilization
